According to PMC13659687, “Cloning, expression, tertiary structure, activity characteristics, design of inhibitor, hydrolysis and inhibition mechanisms analysis of carp adipose triglyceride lipase (ATGL)” (Food Chemistry: Molecular Sciences, 2026):
Where a SMILES comes first, the peptide text is derived from it.

Experiment: Maximum solubility of the small peptide
Type: physicochemical
Conditions: neutral pH

CC[C@H](C)[C@H](NC(=O)[C@H](CC(C)C)NC(=O)[C@@H](N)CCCCN)C(=O)N[C@@H](CCSC)C(=O)N[C@H](C(=O)O)C(C)C [Lys-Leu-Ile-Met-Val] (H-KLIMV-OH)
maximum solubility (4 °C): approximately 0.4 mg/mL | maximum solubility (room temperature): approximately 0.7 mg/mL
